Test system: DOHH2 cells
Test: Cell proliferation assay (MTS) in DOHH2 cells, mechanism-based assay for BTK inhibition
Conditions: Homo sapiens, DOHH-2, 120 h incubation, 5000 cells/well
Source text: Cell Proliferation Assays
MTS testing kit was purchased from Promega. The DMEM, Fetal bovine serum and Penicillin-Streptomycin were purchased from Gibco. Dimethyl sulfoxide (DMSO) was purchased from Sigma.
To investigate whether a compound is able to inhibit the activity of BTK in cells, a mechanism-based assay using DOHH2 (DSMZ catalog#: ACC47) and Mino (ATCC® Number CRL-3000™) cells was developed. In this assay, inhibition of BTK was detected by the inhibition of DOHH2 and Mino cell proliferations. DOHH2 or Mino cells were cultured in culture flasks to 40-80% confluence in RPMI-1640 plus 10% fetal bovine serum. C ells were collected and plated onto 96-well plates at desired cell density (DOHH2: 5000 cells/well; Mino: 10000 cells/well). Plates were incubated overnight at 37° C., with 5% CO2 to adhere. Compounds were added to the plates, and the final compound concentrations were 10000, 3333, 1111, […], 41, 14, 4.6 and 1.5 nM. Plates were placed at 37° C., with 5% CO2 for 120 h (DOHH2) or 72 h (Mino). 20 μl MTS/100 μl medium mixture solution were added to each well and the plates were incubated for exactly 2 hours. The reaction was stopped by adding 25 μl 10% SDS per well.
Select compounds prepared as described above were assayed according to the biological procedures described herein.

SMILES	IC50 [nM]
C=CC(=O)N1CC[C@H](c2nn(-c3ccc(Oc4ccccc4F)cc3)c3c(N)n[nH]c(=O)c23)C1 [Example 47, (S)-3-(1-acryloylpyrrolidin-3-yl)-7-amino-1-(4-(2-fluorophenoxy)phenyl)-1,5-dihydro-4H-pyrazolo[3,4-d]pyridazin-4-one]	60
C=CC(=O)N1CCC[C@@H](c2nn(-c3ccc(Oc4c(F)cccc4F)cc3)c3c(N)n[nH]c(=O)c23)C1 [Example 57, (R)-3-(1-acryloylpiperidin-3-yl)-7-amino-1-(4-(2,6-difluorophenoxy)phenyl)-1,5-dihydro-4H-pyrazolo[3,4-d]pyridazin-4-one]	76
CC#CC(=O)N1CCC(c2cn(-c3ccc(Oc4ccccc4)cc3)c3c(N)n[nH]c(=O)c23)C1 (centres unmarked) [Example 2, 7-amino-3-(1-(but-2-ynoyl)pyrrolidin-3-yl)-1-(4-phenoxyphenyl)-1,5-dihydro-4H-pyrrolo[2,3-d]pyridazin-4-one]	244
CC#CC(=O)N1CC[C@H](c2nn(-c3ccc(Oc4ccccc4F)cc3)c3c(N)n[nH]c(=O)c23)C1 [Example 74, (S)-7-amino-3-(1-(but-2-ynoyl)pyrrolidin-3-yl)-1-(4-(2-fluorophenoxy)phenyl)-1,5-dihydro-4H-pyrazolo[3,4-d]pyridazin-4-one]	393
CC#CC(=O)N1CC[C@H](c2cn(-c3ccc(Oc4c(F)cccc4F)cc3)c3c(N)n[nH]c(=O)c23)C1 [Example 84, (R)-7-amino-3-(1-(but-2-ynoyl)pyrrolidin-3-yl)-1-(4-(2,6-difluorophenoxy)phenyl)-1,5-dihydro-4H-pyrrolo[2,3-d]pyridazin-4-one]	369
C=CC(=O)N1CC[C@@H](c2nn(-c3ccc(Oc4cccc(F)c4F)cc3)c3c(N)n[nH]c(=O)c23)C1 [Example 44, (R)-3-(1-acryloylpyrrolidin-3-yl)-7-amino-1-(4-(2,3-difluorophenoxy)phenyl)-1,5-dihydro-4H-pyrazolo[3,4-d]pyridazin-4-one]	113
CC#CC(=O)N1CCC[C@@H](c2nn(-c3ccc(Oc4c(F)cccc4F)cc3)c3c(N)n[nH]c(=O)c23)C1 [Example 85, (R)-7-amino-3-(1-(but-2-ynoyl)piperidin-3-yl)-1-(4-(2,6-difluorophenoxy)phenyl)-1,5-dihydro-4H-pyrazolo[3,4-d]pyridazin-4-one]	435
C=CC(=O)N1CCC(c2cn(-c3ccc(Oc4ccccc4)cc3)c3c(N)n[nH]c(=O)c23)C1 (centres unmarked) [Example 1, 3-(1-acryloylpyrrolidin-3-yl)-7-amino-1-(4-phenoxyphenyl)-1,5-dihydro-4H-pyrrolo[2,3-d]pyridazin-4-one]	36
CC#CC(=O)N1CCC[C@@H](c2cn(-c3ccc(Oc4c(F)cccc4F)cc3)c3c(N)n[nH]c(=O)c23)C1 [Example 87, (S)-7-amino-3-(1-(but-2-ynoyl)piperidin-3-yl)-1-(4-(2,6-difluorophenoxy)phenyl)-1,5-dihydro-4H-pyrrolo[2,3-d]pyridazin-4-one]	265
C=CC(=O)N1CC[C@@H](c2nn(-c3ccc(C(=O)Nc4ccccn4)cc3)c3c(N)n[nH]c(=O)c23)C1 [Example 90, (R)-4-(3-(1-acryloylpyrrolidin-3-yl)-7-amino-4-oxo-4,5-dihydro-1H-pyrazolo[3,4-d]pyridazin-1-yl)-N-(pyridin-2-yl)benzamide]	580
C=CC(=O)N1CCC[C@H](c2nn(-c3ccc(Oc4ccccc4F)cc3)c3c(N)n[nH]c(=O)c23)C1 [Example 59, (S)-3-(1-acryloylpiperidin-3-yl)-7-amino-1-(4-(2-fluorophenoxy)phenyl)-1,5-dihydro-4H-pyrazolo [3,4-d]pyridazin-4-one]	248
C=CC(=O)N1CCC[C@H](c2cn(-c3ccc(Oc4cccc(F)c4F)cc3)c3c(N)n[nH]c(=O)c23)C1 [Example 38, (R)-3-(1-acryloylpiperidin-3-yl)-7-amino-1-(4-(2,3-difluorophenoxy)phenyl)-1,5-dihydro-4H-pyrrolo[2,3-d]pyridazin-4-one]	175
CC#CC(=O)N1CCC[C@@H](c2cn(-c3ccc(Oc4ccccc4)cc3)c3c(N)n[nH]c(=O)c23)C1 [Example 71, (S)-7-amino-3-(1-(but-2-ynoyl)piperidin-3-yl)-1-(4-phenoxyphenyl)-1,5-dihydro-4H-pyrrolo[2,3-d]pyridazin-4-one]	228
C=CC(=O)N1CC(c2cn(-c3ccc(Oc4ccccc4)cc3)c3c(N)n[nH]c(=O)c23)C1 [Example 114, 3-(1-acryloylazetidin-3-yl)-7-amino-1-(4-phenoxyphenyl)-1,5-dihydro-4H-pyrrolo[2,3-d] pyridazin-4-one]	473
C=CC(=O)N1CCC[C@@H](c2nn(-c3ccc(Oc4ccccc4F)cc3)c3c(N)n[nH]c(=O)c23)C1 [Example 53, (R)-3-(1-acryloylpiperidin-3-yl)-7-amino-1-(4-(2-fluorophenoxy)phenyl)-1,5-dihydro-4H-pyrazolo[3,4-d]pyridazin-4-one]	196
C=CC(=O)N1CCC[C@@H](c2cn(-c3ccc(Oc4ccccc4)cc3)c3c(N)n[nH]c(=O)c23)C1 [Example 11, (S)-3-(1-acryloylpiperidin-3-yl)-7-amino-1-(4-phenoxyphenyl)-1,5-dihydro-4H-pyrrolo[2,3-d]pyridazin-4-one]	40
C=CC(=O)N1CCC(c2cn(-c3ccc(Oc4c(F)cccc4F)cc3)c3c(N)n[nH]c(=O)c23)C1 (centres unmarked) [Example 3, 3-(1-acryloylpyrrolidin-3-yl)-7-amino-1-(4-(2,6-difluorophenoxy)phenyl)-1,5-dihydro-4H-pyrrolo[2,3-d]pyridazin-4-one]	147
C=CC(=O)N1CC[C@@H](c2nn(-c3ccc(Oc4ccccc4)cc3)c3c(N)n[nH]c(=O)c23)C1 [Example 13, (R)-3-(1-acryloylpyrrolidin-3-yl)-7-amino-1-(4-phenoxyphenyl)-1,5-dihydro-4H-pyrazolo[3,4-d]pyridazin-4-one]	107
CC#CC(=O)N1CCC(c2nn(-c3ccc(Oc4ccccc4)cc3)c3c(N)n[nH]c(=O)c23)C1 (centres unmarked) [Example 6, 7-amino-3-(1-(but-2-ynoyl)pyrrolidin-3-yl)-1-(4-phenoxyphenyl)-1,5-dihydro-4H-pyrazolo[3,4-d]pyridazin-4-one]	179
C=CC(=O)N1CC[C@@H](c2cn(-c3ccc(Oc4c(F)cccc4F)cc3)c3c(N)n[nH]c(=O)c23)C1 [Example 21]	100
CC#CC(=O)N1CC[C@H](c2cn(-c3ccc(Oc4ccccc4F)cc3)c3c(N)n[nH]c(=O)c23)C1 [Example 76, (R)-7-amino-3-(1-(but-2-ynoyl)pyrrolidin-3-yl)-1-(4-(2-fluorophenoxy)phenyl)-1,5-dihydro-4H-pyrrolo[2,3-d]pyridazin-4-one]	124
C=CC(=O)N1CCC(c2nn(-c3ccc(Oc4c(F)cccc4F)cc3)c3c(N)n[nH]c(=O)c23)C1 (centres unmarked) [Example 7, 3-(1-acryloylpyrrolidin-3-yl)-7-amino-1-(4-(2,6-difluorophenoxy)phenyl)-1,5-dihydro-4H-pyrazolo[3,4-d]pyridazin-4-one]	182
C=CC(=O)N1CC[C@@H](c2cn(-c3ccc(Oc4cccc(F)c4)cc3)c3c(N)n[nH]c(=O)c23)C1 [Example 18, (S)-3-(1-acryloylpyrrolidin-3-yl)-7-amino-1-(4-(3-fluorophenoxy)phenyl)-1,5-dihydro-4H-pyrrolo[2,3-d]pyridazin-4-one]	181

From US10800785B2, “Substituted pyrrolo[2,3-d]pyridazin-4-ones and pyrazolo[3,4-d]pyridazin-4-ones as protein kinase inhibitors” (Shanghai Fochon Pharmaceutical Co., Ltd., priority 2016, dated 2020)
